Test results from US20230364074A1, “Compounds and Compositions for Disrupting Programmed Ribosomal Frameshifting” (YALE UNIVERSITY, priority 2020, published 2023).
Counter-ions that a name gives are not always drawn.

Key:
[1] = tested on: SARS-CoV-2 FSE (−1 PRF); experiment: cells; type: cell-based; settings: for inhibition at 10 µM / activation at 10 µM: Severe acute respiratory syndrome coronavirus 2, HEK-293T, 24 h; for inhibition at 10 µM: read-out: PERCENT EFFECT 2 (Decreased GFP/Red ratio); for activation at 10 µM: read-out: PERCENT EFFECT (Increased GFP/Red Ratio)
[2] = tested on: HEK293T cells; experiment: Cell viability in the high-throughput screen (cell nuclei numbers); settings: 10 μM compound, cell nuclei numbers
Procedure: HEK293T cells were plated in 384 well plates at the density of 5,000 cells/well. Cells were treated by 10 μM candidate compounds 30 min before transfection of 15 ng mCherry-FSE-GFP(−1) plasmid DNA in each well. 24 hours after transfection, cell nuclei were stained with Hoechst dye. Cell nuclei, mCherry, and GFP signals were imaged using an automated fluorescent microscope with a 10x objective, and the acquired images were quantified using the CellProfiler image analysis package. Cell nuclei numbers were quantified as the metric for cell viability. Mean GFP and RFP intensity values were measured in all transfected cells, and GFP/mCherry mean intensity ratios were quantified as the metric for PRF efficiency. The mCherry-GFP fusion plasmid and the mCherry-FSE-GFP(0) plasmid were used as positive and negative controls for elevated and reduced GFP/mCherry ratios, respectively.

[3] = tested on: −1 PRF of SARS-CoV-2; experiment: microbe, parasite or virus in culture; type: cell-based; settings: for validated effect on −1 PRF in dual luciferase-based PRF reporter assay: repurchased screen candidates
[4] = tested on: −1 PRF of SARS-CoV; experiment: microbe, parasite or virus in culture; type: cell-based; settings: Severe acute respiratory syndrome coronavirus, read-out: IC50 of −1 PRF inhibition, SARS-CoV
[5] = tested on: −1 PRF of HCoV-HKU1; experiment: cells; type: cell-based; settings: read-out: IC50 of −1 PRF inhibition, HCoV-HKU1
[6] = tested on: −1 PRF of HCoV-OC43; experiment: microbe, parasite or virus in culture; type: cell-based; settings: Betacoronavirus 1, OC43, read-out: IC50 of −1 PRF inhibition, HCoV-OC43
[7] = tested on: −1 PRF of hCoV-229E; type: cell-based; settings: 20 μM merafloxacin (FIG. 2E)
[8] = tested on: −1 PRF of hCoV-NL63; type: cell-based; settings: 20 μM merafloxacin (FIG. 2E)
[9] = tested on: two-stem pseudoknot FSE of IBV; type: cell-based, avian coronavirus infectious bronchitis virus (IBV); settings: 20 μM merafloxacin (FIG. 2E)
[10] = tested on: −1 PRF of HIV-1; type: cell-based, human immunodeficiency virus 1 (HIV-1)
[11] = tested on: −1 PRF of WNV; type: cell-based, west nile virus (WNV)
[12] = tested on: −1 PRF of EAV; type: cell-based, equine arteritis virus (EAV)
[13] = tested on: −1 PRF of human PEG10 mRNA; type: cell-based
[14] = tested on: HEK293T cells; type: cell-based
[15] = tested on: SARS-CoV-2; experiment: Viral plaque assay, SARS-CoV-2 in Vero E6 cells; type: cell-based; settings: Severe acute respiratory syndrome coronavirus 2, Vero C1008
[16] = tested on: SARS-CoV-2 nsp12 / nsp8; type: cell-based
[17] = tested on: HCoV-OC43; experiment: Viral plaque assay, HCoV-OC43 in MA104 cells; type: cell-based; settings: MA104 cells (FIGS. 6G-6H)
Procedure: Plaque formation assays for SARS-CoV-2, HCoV-229E, and HCoV-OC43 were performed in Vero E6, HuH-7.5, and MA104 cells (ATCC), respectively. Briefly, cells were seeded at 2-4×10^5 cells/well in 12-well plates. The following day, cells were incubated with viral stock (multiplicity of infection [MOI]=0.05) for 1 h and washed twice with PBS. Merafloxacin diluted in DMSO was added to the media, mixed briefly, and incubated at 37° C. After 2 d, media were collected, centrifuged, and supernatants were stored at −80° C. To quantify viral titers, the collected media were first serially diluted 10-fold with fresh media. Two hundred microliters of each dilution were added to near-confluent cells in six-well plates and incubated at 37° C. for 1 h with gentle rocking. Subsequently, overlay media (DMEM, 2% FBS, 0.6% Avicel RC-581) was added to each well. After 3 d, cells were fixed with 10% formaldehyde for 30 min, stained with crystal violet for 30 min, and rinsed with deionized water to visualize plaques.

[18] = tested on: HIV-1 (NL4-3-dNef-GFP); experiment: HIV-1 antiviral assay in Jurkat T cells; type: cell-based; settings: Jurkat T cells (FIG. 7)
[19] = tested on: HEK293T cells; settings: HEK293T (FIG. 2N)
[20] = tested on: Vero E6 cells; settings: Vero E6 cells (FIG. 6B)
[21] = tested on: −1 PRF in SARS-CoV-2; settings: prior art statement; cited from earlier work

IVERMECTIN
PERCENT EFFECT 2 (Decreased GFP/Red ratio) [1]: −36.2%
PERCENT EFFECT (Increased GFP/Red Ratio) [1]: 15.8%
PERCENT VIABILITY [2]: 223.0%
validated effect on −1 PRF in dual luciferase-based PRF reporter assay [3]: enhancer

CCNCC1CCN(c2c(F)cc3c(=O)c(C(=O)O)cn(CC)c3c2F)C1 (stereo not drawn) [merafloxacin, 1-ethyl-7-[3-(ethylaminomethyl)pyrrolidin-1-yl]-6,8-difluoro-4-oxoquinoline-3-carboxylic acid]
inhibition at 10 µM [1]: 25%
activation at 10 µM [1]: -13%
PERCENT VIABILITY [2]: 168.57%
IC50 ([3]; Severe acute respiratory syndrome coronavirus 2, dose-dependent, FIG. 2C, read-out: IC50 of −1 PRF inhibition, SARS-CoV-2): ~20 µM
−1 PRF of in vitro-transcribed SARS-CoV-2 reporter mRNAs ([3]; in vitro transcribed RNAs (FIG. 2O)): inhibited
validated effect on −1 PRF in dual luciferase-based PRF reporter assay [3]: inhibitor
IC50 [4]: ~20 µM
IC50 [5]: 30 µM
IC50 [6]: 39 µM
activity against −1 PRF of hCoV-229E [7]: much weaker activity
activity against −1 PRF of hCoV-NL63 [8]: much weaker activity
sensitivity of IBV FSE [9]: largely insensitive
inhibition of −1 PRF of HIV-1 [10]: did not inhibit
inhibition of −1 PRF of WNV [11]: did not inhibit
inhibition of −1 PRF of EAV [12]: did not inhibit
inhibition of −1 PRF of human PEG10 mRNA [13]: did not inhibit
effect on upstream FLuc translation ([14]; 20 μM merafloxacin (FIG. 2F)): did not affect
effect on ribosome association of the reporter mRNA ([14]; 80 μM merafloxacin (FIG. 2H)): did not affect
effect on global translation (polysome profiles) ([14]; 80 μM merafloxacin for 24 hours (FIG. 2G)): did not affect
effect on reporter mRNA abundance ([14]; FIG. 2M): did not affect
EC50 ([15]; read-out: EC50 of SARS-CoV-2 replication): 2.6 µM
EC90 ([15]; read-out: EC90 of SARS-CoV-2 replication): 12 µM
relative abundance between nsp12 and nsp8 [16]: substantially reduced
antiviral activity against HCoV-OC43 [17]: showed antiviral activity
antiviral activity against an HIV-1 reporter virus [18]: no antiviral activity
effect on cell viability [19]: did not affect
cytotoxicity [20]: without causing substantial cytotoxicity

Cc1cc2nc3c(=O)[nH]c(=O)nc-3n(CC(O)C(O)C(O)CO)c2cc1C (stereo not drawn) [riboflavin, 7,8-dimethyl-10-(2,3,4,5-tetrahydroxypentyl)benzo[g]pteridine-2,4-dione]
inhibition at 10 µM [1]: -40%
activation at 10 µM [1]: 19.6%
PERCENT VIABILITY [2]: 187.1%

O=C(Nc1ccc(Cl)cc1)Nc1ccc(Cl)c(C(F)(F)F)c1 [halocarban, 3-(4-chlorophenyl)-1-[4-chloro-3-(trifluoromethyl)phenyl]urea]
inhibition at 10 µM [1]: -48.8%
activation at 10 µM [1]: 23.9%
PERCENT VIABILITY [2]: 54.7%

O=C([O-])c1ccccc1-c1c2cc(Br)c(=O)cc-2oc2[c]([Hg+])c([O-])c(Br)cc12.[Na+].[Na+].[OH-] [MERBROMIN]
PERCENT EFFECT 2 (Decreased GFP/Red ratio) [1]: 53.1%
PERCENT EFFECT (Increased GFP/Red Ratio) [1]: −23.1%
PERCENT VIABILITY [2]: 167.4%

O=C(Nc1cccc(C(F)(F)F)c1)c1ccccc1O [salfluverine, 2-hydroxy-N-[3-(trifluoromethyl)phenyl]benzamide]
inhibition at 10 µM [1]: -40.2%
activation at 10 µM [1]: 18.9%
PERCENT VIABILITY [2]: 133.5%

CCC1=C[C@@H]2CN(C1)Cc1c([nH]c3ccccc13)[C@@](C(=O)OC)(c1cc3c(cc1OC)N(C)[C@H]1[C@@](O)(C(=O)OC)[C@H](OC(C)=O)[C@]4(CC)C=CCN5CC[C@]31[C@@H]54)C2 [Vinorelbine]
inhibition at 10 µM [1]: -29.2%
activation at 10 µM [1]: 15.2%
PERCENT VIABILITY [2]: 27.8%

CCOC(=O)OC(C)OC1=C(C(=O)Nc2ccccn2)N(C)S(=O)(=O)c2ccccc21 (stereo not drawn) [AMPIROXICAM]
inhibition at 10 µM [1]: -57.1%
activation at 10 µM [1]: 30.8%
PERCENT VIABILITY [2]: 284.3%

N[C@@H]1[C@H]2CN(c3nc4c(cc3F)c(=O)c(C(=O)O)cn4-c3ccc(F)cc3F)C[C@@H]12 [trovafloxacin]
activity on SARS-CoV-2 PRF efficiency, compared with merafloxacin ([3]; final concentration of 20 μM (FIGS. 3A and 3B)): less active

COc1cccc2c1C(=O)c1c(O)c3c(c(O)c1C2=O)C[C@@](O)(C(=O)CO)C[C@@H]3O[C@H]1C[C@H](N)[C@@H](O)[C@H](C)O1 [EPIRUBICIN HYDROCHLORIDE]
inhibition at 10 µM [1]: 105%
activation at 10 µM [1]: -56.4%
PERCENT VIABILITY [2]: 46.3%

O=[N+]([O-])c1cc(Cl)cc(-c2cc(Cl)cc([N+](=O)[O-])c2O)c1O [niclofolan, 4-chloro-2-(5-chloro-2-hydroxy-3-nitrophenyl)-6-nitrophenol]
inhibition at 10 µM [1]: -36.6%
activation at 10 µM [1]: 17.2%
PERCENT VIABILITY [2]: 68.0%

COc1cccc2c1C(=O)c1c(O)c3c(c(O)c1C2=O)C[C@@](O)(C(C)=O)C[C@@H]3O[C@H]1C[C@H](N)[C@H](O)[C@H](C)O1 [DAUNORUBICIN]
inhibition at 10 µM [1]: 108%
PERCENT VIABILITY [2]: 15.3%
PERCENT VIABILITY ([2]; listed as daunorubicin): 16.18%

CCCC1(CCC)CCC2(CCN(CCCN(CC)CC)C2)CC1 [atiprimod, 3-(8,8-dipropyl-3-azaspiro[4.5]decan-3-yl)-N,N-diethylpropan-1-amine]
inhibition at 10 µM [1]: -40.9%
activation at 10 µM [1]: 21.2%
PERCENT VIABILITY [2]: 7.2%

CCOC(=O)c1ccccc1NC(=O)N1CCCN(Cc2csc(C)n2)CC1 [MTDB]
inhibition of −1 PRF in SARS-CoV-2 reporter assays [21]: inhibit −1 PRF
